# Where two headings read alike, the source gives them in different places.
# Key:
# [1] = target: T1, mENBT1 (slc43a3-encoded mouse ENBT1) (Mus musculus, UniProt A2AVZ9); experiment: Radiolabelled substrate uptake (oil-stop, 2 s) in HEK293-mslc43a3 cells; format: cell-based
# T1 construct: Oligonucleotides corresponding to the coding region of SLC43A3 (NM_001278201) or slc43a3 (NM_021398); expressed in transfected cells; HEK293-mslc43a3
# T1 sequence (A2AVZ9 1-502): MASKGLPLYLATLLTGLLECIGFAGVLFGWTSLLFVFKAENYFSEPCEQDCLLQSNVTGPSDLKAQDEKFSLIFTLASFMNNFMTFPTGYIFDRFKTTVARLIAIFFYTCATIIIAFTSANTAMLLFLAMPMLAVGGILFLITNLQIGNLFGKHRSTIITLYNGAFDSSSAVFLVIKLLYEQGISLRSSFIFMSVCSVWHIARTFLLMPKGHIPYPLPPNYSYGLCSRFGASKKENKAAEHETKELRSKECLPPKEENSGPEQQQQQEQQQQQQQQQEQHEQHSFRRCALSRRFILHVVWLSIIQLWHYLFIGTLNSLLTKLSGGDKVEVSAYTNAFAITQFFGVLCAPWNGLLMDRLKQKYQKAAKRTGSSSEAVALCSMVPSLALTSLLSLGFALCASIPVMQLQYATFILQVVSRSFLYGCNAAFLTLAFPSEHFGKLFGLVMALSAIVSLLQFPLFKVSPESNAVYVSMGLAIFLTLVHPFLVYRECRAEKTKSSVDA
# Method: Harvested cells were suspended in nominally sodium-free N-methyl-D-glucamine (NMG) buffer (140 mM NMG, 5 mM KCl, 4.2 mM KHCO3, 0.36 mM K2HPO4, 0.44 mM KH2PO4, 0.5 mM MgCl2, 1.3 mM CaCl2, 10 mM HEPES, pH 7.4), to minimize potential contribution of sodium-dependent concentrative nucleoside transporter-mediated uptake. Additionally, cells were incubated for 15 minutes at room temperature with 10 μM dipyridamole (DY), an equilibrative nucleoside transporter (ENT) inhibitor, to block equilibrative nucleoside transporter–mediated uptake. The substrate uptake assay was initiated by adding 250 μL cell suspension to 250 μL [^3H] labeled substrate, layered over 21:4 silicone:mineral oil (200 μL) in 1.5 mL microcentrifuge tubes (conducted at room temperature). The uptake reaction was terminated after 2 seconds by centrifugation of the cells through the oil layer at ~10,000 g. […] The resulting cell pellet was digested in 250 μL 1 M NaOH overnight (~16 hours), with 220 μL aliquots of digested cells assessed for radioactive content using standard liquid scintillation counting techniques in a Beckman Coulter LS6500 scintillation system (Brea, CA).
# In transfected-HEK293 cell lines, total uptake was defined as uptake of radiolabeled substrate in cells overexpressing recombinant hENBT1 or mENBT1. […] ENBT1-mediated uptake was calculated as total uptake minus the non-mediated uptake. […]
# [2] = system: MOLT-4 cells; experiment: MTT cell viability assay, MOLT-4; format: cell-based, human; settings: for EC50: Homo sapiens, MOLT-4, 48 h, read-out: first-phase EC50 cell viability
# Method: Transfected-HEK293, MOLT-4, and L1210 cells were seeded into 24-well plates at a density of 1.1x10^5 cells per well in complete culture medium. […] Medium containing no cells was used to determine spontaneous MTT reduction (background). In transfected-HEK293 cells, media was removed via a vacuum-powered aspirator and replaced with 150 μL of Dulbecco’s phosphate buffered saline (DPBS—137 mM NaCl, 2.7 mM KCl, 6.3 mM Na2HPO4, 1.5 mM KH2PO4, 0.5 mM MgCl2, 0.9 mM CaCl2, pH 7.4) containing MTT (1 mg/mL) for 90 minutes at 37°C. In MOLT-4 and L1210, cell suspension was transferred to 1.5 mL microcentrifuge tubes and centrifuged for 10 minutes at 3000 rcf. Following centrifugation, media was removed via gentle pipetting and replaced with 150 μL of DPBS containing MTT (1 mg/mL) for 90 minutes at 37°C. Microcentrifuge tubes were centrifuged again for 15 minutes at 23,500 rcf, and then DPBS containing MTT was removed via a vacuum-powered aspirator. The resultant formazan crystals were solubilized in 500 μL of DMSO and transferred to a 96-well plate in 200 μL duplicates. Absorbance was measured at 570 nm, in a SpectraMax® i3x Multi-Mode Detection Platform (Molecular Devices, San Jose, CA). After background subtraction, % cell viability was calculated as the ratio of absorbance in the presence of test compound to that measured with vehicle alone (X 100).
structure (smiles),measurement,setting,value
"Sc1ncnc2nc[nH]c12 [6-MP, 6-Mercaptopurine]",6-MP Km relative to adenine Km,[1],3 fold
same,6-MP Vmax relative to adenine Vmax,[1],3 fold
same,EC50,"[2]; MTT, biphasic curve (Fig 10A)",700 ± 200 nM
same,EC50,"[2]; in absence of DY, solvent DMSO present",500 ± 100 nM
same,increase in 6-MP sensitivity on co-treatment with DY,"[2]; MOLT-4, 6-MP + DY vs 6-MP + solvent",2 fold

# Reference: PMC11449324, “Functional comparison of human and murine equilibrative nucleobase transporter 1” (PLOS ONE, 2024)
